Laboratory results from patent US7196110B2, “N-substituted tricyclic 3-aminopyrazoles as inhibitors for the treatment of cell proliferative disorders” (Janssen Phamaceutica N.V., priority 2002, dated 2007).

Biological target: T1, PDGF-receptor beta enzyme comprising the tyrosine kinase domain (Homo sapiens, UniProt P09619)
T1 construct: from amino acid 545 to 1106 of GenBank Access NO: AAA36427
Experiment: Inhibition of PDGF-receptor kinase activity (cell-free, PLC1 peptide, 33P Flashplate)
Format: biochemical
Settings: PDGF-R kinase activity; for inhibition at 10 µM: compound at 10 uM, read-out: Percent Inhibition @ 10 uM; for IC50: read-out: IC50
Procedure, shortened: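 The IC50 is the inhibitor level halving kinase activity relative to inhibitor-free wells, measured as 33P captured on a streptavidin-bound biotin-PLC1 peptide. The reaction ran 60 min at 30 °C in pH 8 Tris buffer with 1 mM DTT, 5 μM ATP and the 545–1106 kinase-domain enzyme.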

T1 sequence (P09619 545-1106): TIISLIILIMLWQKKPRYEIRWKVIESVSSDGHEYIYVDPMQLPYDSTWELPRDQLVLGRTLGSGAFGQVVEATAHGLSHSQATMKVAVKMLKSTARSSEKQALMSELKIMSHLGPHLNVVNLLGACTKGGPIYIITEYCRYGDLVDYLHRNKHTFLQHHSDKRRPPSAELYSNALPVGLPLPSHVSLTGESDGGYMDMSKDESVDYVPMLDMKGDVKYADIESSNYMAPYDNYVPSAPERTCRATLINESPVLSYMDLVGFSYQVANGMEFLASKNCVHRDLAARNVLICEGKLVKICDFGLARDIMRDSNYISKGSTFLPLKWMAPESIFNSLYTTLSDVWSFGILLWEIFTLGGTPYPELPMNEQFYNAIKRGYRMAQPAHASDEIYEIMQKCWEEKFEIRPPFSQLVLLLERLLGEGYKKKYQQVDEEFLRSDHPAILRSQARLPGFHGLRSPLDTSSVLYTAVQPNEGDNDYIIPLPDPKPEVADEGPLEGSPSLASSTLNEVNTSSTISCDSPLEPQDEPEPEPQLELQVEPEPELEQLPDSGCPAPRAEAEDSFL

SMILES | inhibition at 10 µM [%] | IC50 [nM]
CCOc1cccc(Nc2[nH]nc3c2C(C)c2cc(OCC)c(OCC)cc2-3)c1 (stereo not drawn) [Compound 504, (6,7-Diethoxy-4-methyl-2,4-dihydro-indeno[1,2-c]pyrazol-3-yl)-(3-ethoxy-phenyl)-amine] | 101 | 142
CCOc1cccc(Nc2[nH]nc3c2C(CC)c2cc(OC)c(OC)cc2-3)c1 (stereo not drawn) [Compound 505, (3-Ethoxy-phenyl)-(4-ethyl-6,7-dimethoxy-2,4-dihydro-indeno[1,2-c]pyrazol-3-yl)-amine] | 97 | 134
CNC(=O)CCCC(=O)n1nc(Nc2cccc(F)c2)c2c1-c1cc(OC)c(OC)cc1C2 [Compound 506, 5-[3-(3-Fluoro-phenylamino)-6,7-dimethoxy-4H-indeno[1,2-c]pyrazol-1-yl]-5-oxo-pentanoic acid methylamide] | 97 | 29.4
COC(=O)Cn1nc(Nc2cccc(F)c2)c2c1-c1cc(OC)c(OC)cc1C2 [Compound 509, [3-(3-Fluoro-phenylamino)-6,7-dimethoxy-4H-indeno[1,2-c]pyrazol-1-yl]-acetic acid methyl ester] | 30.5 | 
CCOC(=O)Cn1nc2c(c1Nc1cccc(F)c1)Cc1cc(OC)c(OC)cc1-2 [Compound 510, [3-(3-Fluoro-phenylamino)-6,7-dimethoxy-4H-indeno[1,2-c]pyrazol-2-yl]-acetic acid ethyl ester] | 57 | 26600
CCOC(=O)Cn1nc(Nc2cccc(F)c2)c2c1-c1cc(OC)c(OC)cc1C2 [Compound 511, [3-(3-Fluoro-phenylamino)-6,7-dimethoxy-4H-indeno[1,2-c]pyrazol-1-yl]-acetic acid ethyl ester] | 51 | 12500
CCC1c2cc(OC)c(OC)cc2-c2n[nH]c(Nc3cccc(OC)c3)c21 (stereo not drawn) [Compound 512, (4-Ethyl-6,7-dimethoxy-2,4-dihydro-indeno[1,2-c]pyrazol-3-yl)-(3-methoxy-phenyl)-amine] | 92 | 183
COc1cc2c(cc1OC)-c1c(c(Nc3cccc(F)c3)nn1C(=O)Oc1ccccc1Cl)C2 [Compound 513, 3-(3-Fluoro-phenylamino)-6,7-dimethoxy-4H-indeno[1,2-c]pyrazole-1-carboxylic acid 2-chloro-phenyl ester] | 86 | 773
CCC1c2cc(OC)c(OC)cc2-c2c1c(Nc1cccc(Br)c1)nn2C(=O)COC (stereo not drawn) [Compound 514, 1-[3-(3-Bromo-phenylamino)-4-ethyl-6,7-dimethoxy-4H-indeno[1,2-c]pyrazol-1-yl]-2-methoxy-ethanone] | 85 | 240
CCC1c2cc(OC)c(OC)cc2-c2nn(C(=O)COC)c(Nc3cccc(Br)c3)c21 (stereo not drawn) [Compound 515, 1-[3-(3-Bromo-phenylamino)-4-ethyl-6,7-dimethoxy-4H-indeno[1,2-c]pyrazol-2-yl]-2-methoxy-ethanone] | 90 | 136
COc1cc2c(cc1OC)-c1c(c(Nc3cccc(F)c3)nn1C(=O)NCCN)C2 [Compound 516, 3-(3-Fluoro-phenylamino)-6,7-dimethoxy-4H-indeno[1,2-c]pyrazole-1-carboxylic acid (2-amino-ethyl)-amide] | 68.5 | 10000
COc1cc2c(cc1OC)-c1c(c(Nc3cccc(F)c3)nn1C(=O)NCCN(C)C)C2 [Compound 517, 3-(3-Fluoro-phenylamino)-6,7-dimethoxy-4H-indeno[1,2-c]pyrazole-1-carboxylic acid (2-dimethylamino-ethyl)-amide] | 75.5 | 1790
CCC1c2cc(OC)c(OC)cc2-c2nn(C(=O)COCc3ccccc3)c(Nc3cccc(Br)c3)c21 (stereo not drawn) [Compound 518, 2-Benzyloxy-1-[3-(3-bromo-phenylamino)-4-ethyl-6,7-dimethoxy-4H-indeno[1,2-c]pyrazol-2-yl]-ethanone] | 92.5 | 184
CCC1c2cc(OC)c(OC)cc2-c2c1c(Nc1cccc(Br)c1)nn2C(=O)COCc1ccccc1 (stereo not drawn) [Compound 519, 2-Benzyloxy-1-[3-(3-bromo-phenylamino)-4-ethyl-6,7-dimethoxy-4H-indeno[1,2-c]pyrazol-1-yl]-ethanone] | 97.5 | 139
COc1cc2c(cc1OC)-c1c(c(Nc3cccc(F)c3)nn1C(=O)NCCN1CCCC1)C2 [Compound 520, 3-(3-Fluoro-phenylamino)-6,7-dimethoxy-4H-indeno[1,2-c]pyrazole-1-carboxylic acid (2-pyrrolidin-1-yl-ethyl)-amide] | 100 | 65.2
COc1cc2c(cc1OC)-c1c(c(Nc3cccc(F)c3)nn1C(=O)NCCN1CCOCC1)C2 [Compound 521, 3-(3-Fluoro-phenylamino)-6,7-dimethoxy-4H-indeno[1,2-c]pyrazole-1-carboxylic acid (2-morpholin-4-yl-ethyl)-amide] | 97 | 55.9

SMILES | inhibition at 10 µM [%] | IC50 [nM]
COc1cc2c(cc1OC)-c1nn(C(=O)NCCN3CCOCC3)c(Nc3cccc(F)c3)c1C2 [Compound 522, 3-(3-Fluoro-phenylamino)-6,7-dimethoxy-4H-indeno[1,2-c]pyrazole-2-carboxylic acid (2-morpholin-4-yl-ethyl)-amide] | 94 | 791
COc1cc2c(cc1OC)-c1c(c(Nc3cccc(F)c3)nn1C(=O)NCCNCCO)C2 [Compound 523, 3-(3-Fluoro-phenylamino)-6,7-dimethoxy-4H-indeno[1,2-c]pyrazole-1-carboxylic acid [2-(2-hydroxy-ethylamino)-ethyl]-amide] | 98.5 | 193
CNCCNC(=O)n1nc(Nc2cccc(F)c2)c2c1-c1cc(OC)c(OC)cc1C2 [Compound 524, 3-(3-Fluoro-phenylamino)-6,7-dimethoxy-4H-indeno[1,2-c]pyrazole-1-carboxylic acid (2-methylamino-ethyl)-amide] | 78 | 2480
COc1cc2c(cc1OC)-c1c(c(Nc3cccc(F)c3)nn1C(=O)NCCNC(=O)C(C)C)C2 [Compound 525, 3-(3-Fluoro-phenylamino)-6,7-dimethoxy-4H-indeno[1,2-c]pyrazole-1-carboxylic acid (2-isobutyrylamino-ethyl)-amide] | 33 | 43200
COc1cc2c(cc1OC)-c1c(c(Nc3cccc(F)c3)nn1C(=O)NCCNC(C)=O)C2 [Compound 526, 3-(3-Fluoro-phenylamino)-6,7-dimethoxy-4H-indeno[1,2-c]pyrazole-1-carboxylic acid (2-acetylamino-ethyl)-amide] | 73 | 8090
C=C(C)C(=O)OCCNC(=O)n1nc(Nc2cccc(F)c2)c2c1-c1cc(OC)c(OC)cc1C2 [Compound 527, 2-Methyl-acrylic acid 2-{[3-(3-fluoro-phenylamino)-6,7-dimethoxy-4H-indeno[1,2-c]pyrazole-1-carbonyl]-amino}-ethyl ester] | 46.5 | 17500
C=C(C)C(=O)OCCNC(=O)n1nc2c(c1Nc1cccc(F)c1)Cc1cc(OC)c(OC)cc1-2 [Compound 528, 2-Methyl-acrylic acid 2-{[3-(3-fluoro-phenylamino)-6,7-dimethoxy-4H-indeno[1,2-c]pyrazole-2-carbonyl]-amino}-ethyl ester] | 93.5 | 196
COc1cc2c(cc1OC)-c1nn([C@@H]3O[C@H](C(=O)O)[C@@H](O)[C@H](O)[C@H]3O)c(Nc3cccc(F)c3)c1C2 [Compound 529, 6-[3-(3-Fluoro-phenylamino)-6,7-dimethoxy-4H-indeno[1,2-c]pyrazol-2-yl]-3,4,5-trihydroxy-tetrahydro-pyran-2-carboxylic acid] | 44 | 10600
COC(=O)C(NC(=O)n1nc(Nc2cccc(F)c2)c2c1-c1cc(OC)c(OC)cc1C2)C(C)C (stereo not drawn) [Compound 530, 2-{[3-(3-Fluoro-phenylamino)-6,7-dimethoxy-4H-indeno[1,2-c]pyrazole-1-carbonyl]-amino}-3-methyl-butyric acid methyl ester] | 71.5 | 4150
COc1cc2c(cc1OC)-c1c(c(Nc3cccc(F)c3)nn1C(=O)CCC(N)=O)C2 [Compound 531, 4-[3-(3-Fluoro-phenylamino)-6,7-dimethoxy-4H-indeno[1,2-c]pyrazol-1-yl]-4-oxo-butyramide] | 90 | 24
COc1cc2c(cc1OC)-c1c(c(Nc3cccc(F)c3)nn1C(=O)NCCNC(=O)c1ccccc1)C2 [Compound 532, 3-(3-Fluoro-phenylamino)-6,7-dimethoxy-4H-indeno[1,2-c]pyrazole-1-carboxylic acid (2-benzoylamino-ethyl)-amide] | 42 | 
COc1cc2c(cc1OC)-c1c(c(Nc3cccc(F)c3)nn1CC(N)=O)C2 [Compound 534, 2-[3-(3-Fluoro-phenylamino)-6,7-dimethoxy-4H-indeno[1,2-c]pyrazol-1-yl]-acetamide] | 94 | 933
COc1cc2c(cc1OC)-c1nn(C(=O)CC(=O)N3CCCC3)c(Nc3cccc(F)c3)c1C2 [Compound 535, 1-[3-(3-Fluoro-phenylamino)-6,7-dimethoxy-4H-indeno[1,2-c]pyrazol-2-yl]-3-pyrrolidin-1-yl-propane-1,3-dione] | 105 | 32.2
COc1cc2c(cc1OC)-c1c(c(Nc3cccc(F)c3)nn1C(=O)CC(=O)N1CCCC1)C2 [Compound 536, 1-[3-(3-Fluoro-phenylamino)-6,7-dimethoxy-4H-indeno[1,2-c]pyrazol-1-yl]-3-pyrrolidin-1-yl-propane-1,3-dione] | 88 | 436
CCN(CC)C(=O)CC(=O)n1nc(Nc2cccc(F)c2)c2c1-c1cc(OC)c(OC)cc1C2 [Compound 537, N,N-Diethyl-3-[3-(3-fluoro-phenylamino)-6,7-dimethoxy-4H-indeno[1,2-c]pyrazol-1-yl]-3-oxo-propionamide] | 104 | 330
